Here are results for three molecules from patent US20210386877A1, “RADIOTHERAPEUTIC COMBINATION THERAPY FOR THE TREATMENT OF CANCER” (Andarix Pharmaceuticals, Inc., priority 2019, published 2021).

Data set [1] deals with SSTR. The conditions noted are these: P2045 radiolabeled with radioactive isotopes of rhenium; versus Depreotide; cited from earlier work.
The conditions of data set [2]: P2045 radiolabeled with radioactive isotopes of rhenium; versus Depreotide; cited from earlier work.
The conditions of data set [3]: intravenously, 1.5 mg/m^2, daily×5, every 21 days; cited from earlier work.
For data set [4] the following is noted: cited from earlier work.
Data set [5] relates to SSTR2. Description: SSTR2 expression in small cell cell lines after 24 hours of incubation (FIG. 2, FIG. 3). Format: cell-based. The conditions noted are these: H69, H187 and H417 cell lines, 3 and 5 mM valproic acid, versus beta-actin (control). On the procedure:
FIG. 3 graphically quantifies the expression of SSTR2 in small cell cell lines after 24 hours of incubation with 3 and 5 mM valproic acid versus the demethylating agent, Decitabine.
FIG. 3 graphically quantifies the expression of SSTR2 […].

*1 amine or outer side, *2 acyl side, *3 side chain or, on linkers, in order; H or OH if unused. Where a SMILES comes first, the peptide text is derived from it. Bridges are numbered along the chain shown (N, C = ends). Roman numbers before positions name the chains, in order. [ ]: non-standard residue; d: D form. ξ: configuration not given here. Phe(4-NH2) = Nc1ccc(C[C@H](N)C(=O)O)cc1; NMehCys = CN[C@@H](CCS)C(=O)O; Thr(3ξ) = CC(O)[C@H](N)C(=O)O; Dap = NC[C@H](N)C(=O)O; X1 = O=C(C[*:1])[*:2]

`CC(O)[C@H](NC(=O)[C@H](CS)NC(=O)[C@H](Cc1ccc(N)cc1)NC(=O)[C@@H](N)CNC(=O)CSCC[C@H]1C(=O)N[C@@H](Cc2ccc(O)cc2)C(=O)N[C@H](Cc2c[nH]c3ccccc23)C(=O)N[C@@H](CCCCN)C(=O)N[C@@H](C(C)O)C(=O)N[C@@H](Cc2ccccc2)C(=O)N1C)C(=O)N[C@@H](CO)C(=O)O` (stereo partly drawn) [P2045, cyclo-[Tyr-(D-Trp)-Lys-Thr-Phe-(N-Me)Hcy]CH2CO-β-Dap-Phe(4-NH2)-Cys-Thr-Ser-OH)]] (I: cyclo(F[NMehCys]Y[dW]K[Thr(3ξ)]) / II: H-[Dap][Phe(4-NH2)]C[Thr(3ξ)]S-OH; linker I:2-II:1 via X1): the SSTR affinity result in data set [1] is listed as “retains the SSTR affinity of Depreotide”. Moreover, the “kidney and whole body retention” value in data set [2] is “lower kidney and whole body retention”. For the molecule `CC[C@@]1(O)C(=O)OCc2c1cc1n(c2=O)Cc2cc3c(CN(C)C)c(O)ccc3nc2-1` [topotecan], the most common toxicities result in data set [3] is “hematologic (grade 4 neutropenia, thrombocytopenia and grade 3/4 anemia)”. In the case of `CCCC(CCC)C(=O)O` [valproic acid], in data set [4], the “solubility in organic solvents” value was “very soluble”. In addition, the SSTR2 expression result in data set [5] is recorded as “upregulation of SSTR2”.
